Laboratory results: publication PMC10790228 (Journal of medical virology, 2022)

How the values were obtained:
HIV-1 = settings: cited from earlier work
[1] = Metabolic stability in human liver microsomes; settings: HLM, 0.5 mg protein/mL; for Remaining (NCF = 60min): no co-factor (no NADPH)
[2] = biological target: binding of CPSF6 to CA hexamer; assay: SPR-based competition assay with CPSF6; parameters: species or system HIV-1; settings: read-out: IC50 inhibition of CPSF6 binding to CA hexamer
[3] = human, microsomes
HIV-1 NL4.3 virus = assay: Single-round infection assay, early and late stage; type: cell-based; settings: compound at 1 μM, average of 3 replicates
[4] = cited from earlier work
HIV-1 CA hexamer = settings: read-out: KD Hexamer; SPR, average of at least 3 replicates
wild-type HIV-2 = assay: Anti-HIV-2 activity in MT-4 cells, MTT method; type: cell-based; settings: read-out: EC50 HIV-2

Row | SMILES | anti-HIV-1 activity (HIV-1) | Remaining (T = 60min) [1] | Remaining (NCF = 60min) [1] | IC50 [2] | CLint(mic) [3] | Infection (%) Early-stage (HIV-1 NL4.3 virus) | Infection (%) Late-stage (HIV-1 NL4.3 virus) | T1/2 [1] | CLint(liver) ([1]; scaled from CLint(mic)) | EC50 (HIV-1; read-out: anti-HIV-1 potency EC50) | metabolic stability T1/2 [4] | CC50 (MT-4 cells) | Kd (HIV-1 CA hexamer) | EC50 (wild-type HIV-2)
1 | CC(C)(C#Cc1ccc(-c2ccc(Cl)c3c(NS(C)(=O)=O)nn(CC(F)(F)F)c23)c([C@H](Cc2cc(F)cc(F)c2)NC(=O)Cn2nc(C(F)(F)F)c3c2C(F)(F)[C@@H]2C[C@H]32)n1)S(C)(=O)=O [GS-6207] | picomolar | – | – | – | – | – | – | – | – | – | – | – | – | –
2 | C[C@]12CC[C@H]3[C@@H](CCC4=CC(=O)CC[C@@]43C)[C@@H]1CC[C@@H]2O [Testosterone] | – | 4.8% | 95.8% | – | – | – | – | – | – | – | – | – | – | –
3 | Cc1[nH]c2ccccc2c1CC(=O)N[C@@H](Cc1ccccc1)C(=O)N(C)c1ccccc1 [PF-74] | – | 0.0% | 106.1% | 26.6 nM | 2114.6 µL/min/mg | 0.07 ± 0.01% | 58.19 ± 12.54% | 42 s | 1903.1 mL/min/kg | 520 to 900 nM | 30 to 78 s | > 294000 nM | 47 ± 0.6 nM | 3790 ± 390 nM
